Laboratory results published in patent publication US6599499B1, “Uses of diterpenoid triepoxides as an anti-proliferative agent” (priority 1999, dated 2003).

Assays:
p21 = p21 protein level by immunoblotting (Example 5); assay type: cell-based, human; conditions: for effect on p21 expression: p53 mutant HT29 colon cancer cell line
Method: (§1) Immunoblotting. Cells were harvested at the conditions and times indicated and lysed using HNET buffer (50 mM HEPES, pH 7.5, 100 mM NaCl, 1 mM EGTA, and 1% Triton X-100) supplemented with 1 mM dithiothreitol, 1 mM phenylmethylsulfonyl fluoride, and protease inhibitors mixture (Roche Molecular Biochemicals). 100 μg of protein was loaded on 10% SDS-PAGE followed by transferring to polyvinylidene difluoride membrane. Immunoblotting was performed as described previously using a p53 mouse monoclonal antibody from Oncogene Research Products. […] Immunoblot analysis using other antibodies was performed as described above. The band intensity was measured by NIH Image 1.62.

[1] = tested on: Dx5 MDR human tumor cells; assay: Nude mouse xenograft, established Dx5 MDR tumors; assay type: in vivo, nude mice
Method: Nude mouse xenograft model. Female NCr nude mice were purchased from Taconic, Germantown, N.Y., and were generally 20-24 grams when used. Mice were kept in autoclaved filter-top microisolator cages with autoclaved water and sterile food ad lib. The cages were maintained in an isolator unit providing filtered air (Lab Products, Inc., Maywood, N.J.). Tumor cells were grown and harvested as described above. NCr nude mice were injected intradermally with 5×10^6 tumor cells. In some experiments, treatment was initiated on the day of tumor cell implantation. […] Mice were treated IP daily for 5 days per week.
MDR is a factor in failing to achieve durable chemotherapeutic efficacy in the clinical setting. Using an MDR tumor cell line Dx5 the efficacy of PG490-88 was tested. Nude mice were implanted intradermally with Dx5 tumor cells, and treatment was initiated when the tumors reached approximately 100 mm^3.
The data in FIG. 4 represents the measurement of Dx5 tumor volume on day 14 after the initiation of treatment. Nude mice bearing xenografts of Dx5 MDR human tumor cells were treated daily as shown. The data represent the means and the standard errors of the means of the tumor volumes as percent of the day 0 tumor volumes for each animal measured day 3, 7, 10 and 14 days after the initiation of treatment. There were 5 mice in the groups receiving saline or PG490-88 plus doxorubicin, and 4 mice in the groups receiving PG490-88 or doxorubicin alone.

p53 = p53 protein level by immunoblotting (Example 5); assay type: cell-based, human
Method: as §1

[2] = tested on: MCF-7 (breast cancer) cells; assay: cells; conditions: for Percent survival: MTT after 48 h
Method: Cell culture and luciferase assay. A549 (non-small cell lung cancer), HT-1080 (fibrosarcoma), and MCF-7 (breast cancer) cells were cultured in the appropriate media with 10% FCS supplemented with L-glutamine, penicillin, and streptomycin. p53 wild-type (+/+) and null (−/−) Mouse Embryonic Fibroblasts (MEFs) transfected with the E1A/Ras were grown in DMEM containing 15% FCS supplemented with L-glutamine, penicillin, and streptomycin. Transfections were done on MCF-7 cells using the lipofectamine Plus reagent. At 24 hours after transfection, MCF-7 cells were left untreated or treated with triptolide (20 ng/ml) or doxorubicin (100 nM) for 4, 8, and 16 hours and cells were collected for luciferase assay. Luciferase activity was measured in samples with equal protein concentration with a Luminometer (Analytical Luminescence Laboratory, San Diego, Calif.).
Cell viability assay. Cell viability was measured by an 3-(4,5-dimethylthiazol-2-yl)-2,5-diphenyltetrazolium bromide (MTT) assay as described above. Untreated or cells treated with triptolide and/or doxorubicin were harvested at the indicated times followed by the addition of MTT to the cells in a 96-well plate. Cells were solubilized with […] acidified with 0.1N HCl. The 96-plate was read at a wavelength of 590 nm on an iEMS Labsystems plate reader.

[3] = tested on: p53 consensus binding site; assay: Electromobility shift assay of p53 DNA binding; assay type: cell-based, human
Method: Electromobility Shift Assay (EMSA. HT1080 cells were treated as shown. The EMSA was performed as described previously using an end-labeled 32P-p53 consensus binding site (Santa Cruz Biotechnology, Santa Cruz, Calif.) (Lee et al., supra.)

[4] = tested on: Dx5 (MDR uterine sarcoma) cell line; assay: cells
Method: (§2) Cells and Transfections. H23 (non-small cell lung cancer) and ZR-75 (breast cancer) cell lines were purchased from ATCC. The Bcl-2 expression vector was provided by Fred Hutchinson Cancer Research Center, Seattle, Wash. MES-SA and Dx5 cell lines were provided by Branimir Sikic (Stanford University). Cells were cultured in the appropriate medium with 10% FCS supplemented with L-glutamine, penicillin and streptomycin. To examine the effect of Bcl-2 on cell survival, the Bcl-2 expression vector or the vector alone was co-transfected with a β galactosidase expression vector (Invitrogen, Carlsbad, Calif.) at a 5:1 ratio using lipofectamine plus (GIBCO BRL, Gaithersburg, Md.) into Dx5 cells. After 36 h cells were stained with 5-bromo4-chloro-3-indolyl […]-D-galactopyranoside (X-gal). Cell survival was calculated as number of total cells-blue cells/total number of cells in a 90 mm^2 area from duplicate plates and expressed as the mean ±S.D.
(§3) Cell death reagents and assays. Cell viability was measured by an MTT assay as recently described (Lee et al. (1999) J. Biol. Chem. 274:13451-13455. z-VAD-fluoromethylketone (z-VAD.fmk) was obtained from Alexis Biochemicals, San Diego, Calif. The effect of z-VAD.fmk on cell viability was analyzed by annexin and propidium iodide staining followed by FACS analysis according to the manufacturer's protocol (Clontech Laboratories, Palo Alto, Calif.). The analysis of apoptosis in histologic sections was done by terminal deoxynucleotidyl transferase (TdT)-mediated d-UTP nick end labeling (TUNEL) of slides from paraffin sections of day 3 tumors harvested from the mice 24 h after the second of two daily treatments with PG490-88 or saline. TUNEL staining was done according to the manufacturer's protocol (Boehringer Mannheim, Indianapolis, Ind.) and then the histology slides were counterstained with methyl green. DNA was isolated from cells for analysis of internucleosomal DNA laddering followed by agarose gel electrophoresis and ethidium bromide staining.
(§4) In FIG. 1A, ZR-75 (breast cancer), H23 (non-small cell lung cancer) and Dx5 (MDR uterine sarcoma) cell lines were treated with PG490 at dosages shown and harvested 48 h later for analysis of cell viability by an MTT assay. Data is the mean of three experiments ±S.D. In FIG. 1B, DNA was isolated from untreated or PG490-treated cells 16 h after the addition of PG490 followed by agarose gel electrophoresis and ethidium bromide staining.

[5] = tested on: H23 (non-small cell lung cancer) cell line; assay: cells
Method: as §2, §3, §4

Q: What does the source list for `COc1cccc2c1C(=O)c1c(O)c3c(c(O)c1C2=O)C[C@@](O)(C(=O)CO)C[C@@H]3O[C@H]1C[C@H](N)[C@H](O)[C@H](C)O1` [doxorubicin, reference compound]?
A: increase in p21 (p21; HT1080, doxorubicin): 14.5 fold; effect on p21 expression (p21): did not affect; increase of mean tumor volume over 14 days ([1]; doxorubicin alone 2 mg/kg/day): more than 10 fold; increase in p53 protein (p53; HT1080, doxorubicin alone or plus triptolide): 4.9 fold

Q: Which “reduction of basal p21 levels” value (p21; HT1080, triptolide 20 ng/ml) does the source give for `CC(C)[C@]12O[C@H]1[C@@H]1O[C@]13[C@]1(O[C@H]1C[C@H]1C4=C(CC[C@@]13C)C(=O)OC4)[C@@H]2O` [PG490, triptolide] here?
A: The value was 50%.

Q: And the “effect on CPT-11-mediated induction of p21” value (p21; HT1080 and A549 cells)?
A: Its value is “inhibits”.

Q: What about the “effect on p21 expression” value (p21) of the same molecule?
A: The value was “did not affect”.

Q: What about the “reduction of doxorubicin-mediated induction of p53” value (p21; triptolide 5 ng/ml) of the same molecule?
A: Its value is 58%.

Q: What about the “effect on doxorubicin-induced increase in p21” value (p21; triptolide 20 ng/ml) of the same molecule?
A: The value was “completely blocked”.

Q: What about the cytotoxicity at 0.02 µg/mL ([2]; Homo sapiens, MCF7, read-out: decrease in cell viability, MCF-7, triptolide 20 ng/ml) of the same molecule?
A: Its cytotoxicity at 0.02 µg/mL is 70%.

Q: And the Percent survival ([2]; MCF-7, Triptolide 5 ng/ml)?
A: The Percent survival was 63.9 ± 8.1%.

Q: What about the Percent survival ([2]; MCF-7, Triptolide 20 ng/ml) of the same molecule?
A: Its Percent survival is 30.5 ± 7.6%.

Q: And the “increase in p53” value (p53; HT1080, triptolide 5 ng/ml)?
A: Its value is 2.4 fold.

Q: And the “increase in p53 steady-state protein levels” value (p53; HT1080, triptolide 20 ng/ml, 9 h)?
A: The value was 4 fold.

Q: And the “DNA binding of p53” value ([3]; triptolide alone)?
A: Its value is “slightly enhanced”.

Q: What about the “effect on doxorubicin-mediated induction of DNA binding of p53” value ([3]; triptolide in combination with doxorubicin) of the same molecule?
A: The value was “did not block”.

Q: What about the “difference in sensitivity between Dx5 cell line and parent MES-SA cell line” value [4] of the same molecule?
A: The value was “No significant difference”.

Q: What about the cytotoxicity at 0.01 µg/mL ([4]; Homo sapiens, 48 h, read-out: decrease in cell viability) of the same molecule?
A: Its cytotoxicity at 0.01 µg/mL is 65 to 70%.

Q: And the cytotoxicity at 0.02 µg/mL ([4]; Homo sapiens, 48 h, read-out: reduction of cell viability)?
A: Its cytotoxicity at 0.02 µg/mL is > 80%.

Q: What about the cytotoxicity at 0.01 µg/mL ([5]; Homo sapiens, NCI-H23, 48 h, read-out: decrease in cell viability) of the same molecule?
A: Its cytotoxicity at 0.01 µg/mL is 65 to 70%.

Q: And the cytotoxicity at 0.02 µg/mL ([5]; Homo sapiens, NCI-H23, 48 h, read-out: reduction of cell viability)?
A: The cytotoxicity at 0.02 µg/mL was > 80%.

Q: And the “cell death, % of cells” value ([5]; mutant p53 lung cancer cell line)?
A: The value was “over 80%”.

Q: Which “growth of one tumor compared with its day 0 value” ([1]; PG490-88 0.75 mg/kg/day, one of four mice) does the source give for `CC(C)[C@]12O[C@H]1[C@@H]1O[C@]13[C@]1(O[C@H]1C[C@H]1C4=C(CC[C@@]13C)C(=O)OC4)[C@@H]2OC(=O)CCC(=O)[O-].[Na+]` [PG490-88, 14-succinyl triptolide sodium salt] here?
A: The value was 2.8 fold.

Q: What about the “reduction of mean tumor size compared to day 0 values” ([1]; PG490-88 0.75 mg/kg/day, three of the four mice) of the same molecule?
A: Its value is 28%.
